In ChEMBL document CHEMBL1221200, “Diarylquinolines target subunit c of mycobacterial ATP synthase” (Nat Chem Biol, 2007):
Values after ≈ are worked out from the molar mass of the structure shown. Active and inactive are the calls of the source. The calls are words filed in the database; no cut-off is given here.

Columns and labels:
[1] = molecular target: ATP synthase subunit c (Mycobacterium tuberculosis (strain CDC 1551 / Oshkosh)) (UniProt P9WPS0); experiment: Inhibition of Mycobacterium tuberculosis ATP synthase subunit c-mediated ATP synthesis after […] by luminometry
ATP synthase subunit c (Mycobacterium tuberculosis (strain CDC 1551 / Oshkosh)), sequence (P9WPS0 whole entry): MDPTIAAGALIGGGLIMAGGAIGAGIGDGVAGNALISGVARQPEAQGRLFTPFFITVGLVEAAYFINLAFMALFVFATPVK

[2] = molecular target: ATP synthase subunit alpha (Bacillus sp.) (UniProt P09219); experiment: Binding affinity to Bacillus PS3 ATP synthase subunit alpha by mass spectroscopy
ATP synthase subunit alpha (Bacillus sp.), sequence (P09219 whole entry): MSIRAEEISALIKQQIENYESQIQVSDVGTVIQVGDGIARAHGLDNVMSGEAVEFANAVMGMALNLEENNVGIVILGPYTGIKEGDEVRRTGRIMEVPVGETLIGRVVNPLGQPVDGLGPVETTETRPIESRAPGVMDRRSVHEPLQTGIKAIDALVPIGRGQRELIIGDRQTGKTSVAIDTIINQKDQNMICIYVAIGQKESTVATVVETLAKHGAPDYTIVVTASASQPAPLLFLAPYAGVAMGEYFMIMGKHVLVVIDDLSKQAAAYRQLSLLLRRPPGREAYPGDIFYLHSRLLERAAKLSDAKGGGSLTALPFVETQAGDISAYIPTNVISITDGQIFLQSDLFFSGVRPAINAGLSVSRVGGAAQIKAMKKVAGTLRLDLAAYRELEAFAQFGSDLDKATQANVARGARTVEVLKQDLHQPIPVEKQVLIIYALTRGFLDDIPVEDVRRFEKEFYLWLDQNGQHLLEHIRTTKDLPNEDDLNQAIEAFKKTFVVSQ

[3] = tested on: Mycolicibacterium smegmatis; experiment: Binding affinity to Mycobacterium smegmatis ATCC 607 ATP synthase subunit alpha by mass spectroscopy
[4] = tested on: Mycobacterium tuberculosis; experiment: Antimicrobial activity against wild-type Mycobacterium tuberculosis expressing ATP synthase AtpE assessed as growth inhibition in early log-phase by 7H10 agar dilution method; assay type: functional, organism-based
[5] = molecular target: ATP synthase subunit beta (Bacillus sp.) (UniProt P07677); experiment: Binding affinity to Bacillus PS3 ATP synthase subunit beta by mass spectroscopy
ATP synthase subunit beta (Bacillus sp.), sequence (P07677 whole entry): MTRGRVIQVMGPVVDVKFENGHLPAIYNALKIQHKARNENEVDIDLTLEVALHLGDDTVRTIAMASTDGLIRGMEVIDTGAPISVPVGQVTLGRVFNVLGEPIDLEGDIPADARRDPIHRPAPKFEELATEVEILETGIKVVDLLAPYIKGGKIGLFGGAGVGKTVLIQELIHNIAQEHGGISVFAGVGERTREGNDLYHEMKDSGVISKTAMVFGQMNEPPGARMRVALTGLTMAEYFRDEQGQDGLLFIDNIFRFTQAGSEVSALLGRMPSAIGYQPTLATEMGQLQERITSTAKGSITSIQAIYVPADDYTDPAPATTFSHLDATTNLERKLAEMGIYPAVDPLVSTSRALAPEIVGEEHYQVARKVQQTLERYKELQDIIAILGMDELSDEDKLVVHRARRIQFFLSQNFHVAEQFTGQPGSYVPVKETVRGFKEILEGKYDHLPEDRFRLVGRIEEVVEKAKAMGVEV

[6] = tested on: Mycolicibacterium smegmatis; experiment: Binding affinity to Mycobacterium smegmatis ATCC 607 ATP synthase subunit beta by mass spectroscopy
[7] = tested on: Mycobacterium tuberculosis; experiment: Antimicrobial activity against Mycobacterium tuberculosis by alamar blue assay; assay type: functional
[8] = tested on: Mycolicibacterium smegmatis; experiment: Antimicrobial activity against Mycobacterium smegmatis ATCC 607 by alamar blue assay; assay type: functional
[9] = molecular target: Putative uncharacterized protein atpE (Mycolicibacterium smegmatis, UniProt Q5TIX5); experiment: Inhibition of Mycobacterium smegmatis ATCC 607 ATP synthase subunit c-mediated ATP synthesis after 60 mins by luminometry
Putative uncharacterized protein atpE, sequence (Q5TIX5 whole entry): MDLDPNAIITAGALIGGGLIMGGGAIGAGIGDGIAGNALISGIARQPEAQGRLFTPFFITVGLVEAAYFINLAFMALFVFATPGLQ

ATP synthase subunit c = ATP synthase subunit c (Bacillus sp., UniProt P00845); experiment: Binding affinity to Bacillus PS3 ATP synthase subunit c; design: species or system Bacillus sp. PS3
ATP synthase subunit c, sequence (P00845 whole entry): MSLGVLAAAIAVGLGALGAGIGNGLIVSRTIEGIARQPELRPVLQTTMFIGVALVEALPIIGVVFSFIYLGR

[10] = tested on: Mycolicibacterium smegmatis; experiment: Ratio of MIC for Mycobacterium smegmatis isolate R09 expressing ATP synthase AtpE D32V mutant protein to MIC for wild type Mycobacterium smegmatis; assay type: functional
[11] = tested on: Mycobacterium tuberculosis; experiment: Antimicrobial activity against Mycobacterium tuberculosis H37Rv by 7H9 broth dilution method; assay type: functional
[12] = tested on: Mycolicibacterium smegmatis; experiment: Antimicrobial activity against Mycobacterium smegmatis isolate R09 expressing ATP synthase AtpE D32V mutant protein by 7H10 agar dilution method; assay type: functional
[13] = tested on: Mycolicibacterium smegmatis; experiment: Antimicrobial activity against wild type Mycobacterium smegmatis ATCC 607 expressing vector pSD5 by 7H9 agar dilution method; assay type: functional
[14] = tested on: Mycolicibacterium smegmatis; experiment: Ratio of MIC for Mycobacterium smegmatis expressing ATP synthase AtpE D32V mutant protein to MIC for wild type Mycobacterium smegmatis ATCC 607 expressing vector pSD5; assay type: functional
[15] = Binding affinity to Bacillus PS3 ATP synthase subunit c A63P mutant; design: species or system Bacillus sp. PS3
[16] = tested on: Mycolicibacterium smegmatis; experiment: Antimicrobial activity against Mycobacterium smegmatis expressing ATP synthase AtpE D32V mutant protein by 7H9 agar dilution method; assay type: functional
[17] = tested on: Mycolicibacterium smegmatis; experiment: Antimicrobial activity against Mycobacterium smegmatis isolate R09 expressing ATP synthase AtpE D32V mutant protein by 7H9 agar dilution method; assay type: functional
[18] = tested on: Mycolicibacterium smegmatis; experiment: Antimicrobial activity against Mycobacterium smegmatis expressing ATP synthase AtpE D32V mutant protein by 7H10 agar dilution method; assay type: functional
[19] = tested on: Mycolicibacterium smegmatis; experiment: Antimicrobial activity against Mycobacterium smegmatis ATCC 607 expressing ATP synthase AtpE subunit by 7H9 agar dilution method; assay type: functional
[20] = tested on: Mycolicibacterium smegmatis; experiment: Antimicrobial activity against wild-type Mycobacterium smegmatis ATCC 607 expressing ATP synthase AtpE subunit by 7H10 agar dilution method; assay type: functional
[21] = tested on: Mycolicibacterium smegmatis; experiment: Antimicrobial activity against wild type Mycobacterium smegmatis ATCC 607 by 7H10 agar dilution method; assay type: functional
[22] = tested on: Mycolicibacterium smegmatis; experiment: Antimicrobial activity against wild type Mycobacterium smegmatis ATCC 607 expressing vector pSD5 by 7H10 agar dilution method; assay type: functional
[23] = tested on: Mycolicibacterium smegmatis; experiment: Antimicrobial activity against wild type Mycobacterium smegmatis ATCC 607 by 7H9 agar dilution method; assay type: functional
[24] = tested on: Mycobacterium tuberculosis; experiment: Antimicrobial activity against Mycobacterium tuberculosis H37Rv by […] dilution method; assay type: functional

Which results are given for `COc1nc2ccc(Br)cc2cc1[C@@H](c1ccccc1)[C@@](O)(CCN(C)C)c1cccc2ccccc12`?
inhibition [1]: Dose-dependent effect; Activity [2]: Active; Activity [3]: Active; Activity [4]: Active; Activity [5]: Active; Activity [6]: Active

Which results are given for `CO[C@H]1/C=C/O[C@@]2(C)Oc3c(C)c(O)c4c(O)c(c(/C=N/N5CCN(C)CC5)c(O)c4c3C2=O)NC(=O)/C(C)=C\C=C\[C@H](C)[C@H](O)[C@@H](C)[C@@H](O)[C@@H](C)[C@H](OC(C)=O)[C@@H]1C` [RIFAMPIN]?
MIC90 ([7]; Mycobacterium tuberculosis, read-out: MIC90): 0.13 µg/mL (≈ 0.158 µM); MIC90 ([8]; Mycolicibacterium smegmatis, ATCC 607, read-out: MIC90): 8.2 µg/mL (≈ 9.96 µM)

Which MIC90 [7] does the source give for `COc1nc2ccc(Br)cc2cc1[C@H](c1ccccc1)[C@@](O)(CCN(C)C)c1cccc2ccccc12` (racemic; 1d) here?
Its MIC90 is 1.8 µg/mL (≈ 3.24 µM).

And the MIC90 [8]?
The MIC90 was 0.08 µg/mL (≈ 0.144 µM).

Which MIC90 [7] does the source give for `COc1nc2ccc(Br)cc2cc1[C@H](c1ccccc1)[C@@](O)(CCN(C)C)c1cccc2ccccc12` (racemic; 1c) here?
Its MIC90 is 44 µg/mL (≈ 79.2 µM).

And the IC50 [9]?
The IC50 was 750 nM.

And the MIC90 [8]?
Its MIC90 is 7 µg/mL (≈ 12.6 µM).

With `COc1nc2ccc(Br)cc2cc1[C@@H](c1ccccc1)[C@@](O)(CCN(C)C)c1cccc2ccccc12` [BEDAQUILINE] as the compound, how does the MIC90 [7] read?
The MIC90 was 0.06 µg/mL (≈ 0.108 µM).

And the Kd (ATP synthase subunit c)?
The Kd was 500 nM.

And the Ratio [10]?
Its Ratio is >100.

And the IC50 [9]?
The IC50 was 2.5 nM.

And the MIC [11]?
Its MIC is 0.03 µg/mL (≈ 0.054 µM).

What about the MIC [12] of the same compound?
The MIC was 0.7 µg/mL (≈ 1.26 µM).

What about the MIC [13] of the same compound?
The MIC was 0.003 µg/mL (≈ 0.0054 µM).

What about the Ratio [14] of the same compound?
The Ratio was >100.

What about the Kd [15] of the same compound?
The Kd was 1500 nM.

And the MIC [16]?
Its MIC is 0.5 µg/mL (≈ 0.9 µM).

What about the MIC [17] of the same compound?
The MIC was 0.6 µg/mL (≈ 1.08 µM).

What about the MIC [18] of the same compound?
The MIC was 0.4 µg/mL (≈ 0.72 µM).

What about the MIC [19] of the same compound?
The MIC was 0.003 µg/mL (≈ 0.0054 µM).

What about the MIC [20] of the same compound?
The MIC was 0.003 µg/mL (≈ 0.0054 µM).

What about the MIC [21] of the same compound?
Its MIC is 0.003 µg/mL (≈ 0.0054 µM).

What about the MIC [22] of the same compound?
The MIC was 0.003 µg/mL (≈ 0.0054 µM).

And the MIC90 [8]?
Its MIC90 is 0.004 µg/mL (≈ 0.0072 µM).

And the MIC [23]?
Its MIC is 0.003 µg/mL (≈ 0.0054 µM).

What about the MIC [24] of the same compound?
The MIC was 0.05 µg/mL (≈ 0.09 µM).

With `COc1nc2ccc(Br)cc2cc1[C@@H](c1ccccc1)[C@@](O)(CCN(C)C)c1cccc2ccccc12` (single isomer, unassigned) [BEDAQUILINE] as the compound, how does the MIC90 [7] read?
The MIC90 was 8.8 µg/mL (≈ 15.8 µM).

What about the IC50 [9] of the same compound?
Its IC50 is 25 nM.

And the MIC90 [8]?
The MIC90 was 0.35 µg/mL (≈ 0.63 µM).
